Target: T1, Kv4.2 (Homo sapiens, UniProt Q9NZV8)
T1 construct: expressed in transfected cells; host or cells: HEK cells, transient transfection, vector pCDNA3
T1 sequence (Q9NZV8 1-630): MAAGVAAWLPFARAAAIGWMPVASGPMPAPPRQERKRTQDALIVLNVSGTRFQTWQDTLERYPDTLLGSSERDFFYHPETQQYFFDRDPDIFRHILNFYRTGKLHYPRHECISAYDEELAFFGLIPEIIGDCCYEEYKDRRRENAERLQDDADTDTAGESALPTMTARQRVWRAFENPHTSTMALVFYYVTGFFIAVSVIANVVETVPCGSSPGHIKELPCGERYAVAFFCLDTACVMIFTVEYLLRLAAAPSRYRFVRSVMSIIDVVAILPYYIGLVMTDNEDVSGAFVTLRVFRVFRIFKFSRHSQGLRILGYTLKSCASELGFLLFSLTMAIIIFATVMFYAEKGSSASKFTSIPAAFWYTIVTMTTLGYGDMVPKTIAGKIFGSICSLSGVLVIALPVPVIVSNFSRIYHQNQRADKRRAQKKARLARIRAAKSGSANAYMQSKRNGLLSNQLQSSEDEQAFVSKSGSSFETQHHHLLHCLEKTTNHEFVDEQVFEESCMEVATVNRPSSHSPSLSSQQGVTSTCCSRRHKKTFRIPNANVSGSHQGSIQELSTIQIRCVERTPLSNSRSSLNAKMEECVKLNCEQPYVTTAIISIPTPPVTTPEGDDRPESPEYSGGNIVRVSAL
Test: Patch-clamp inhibition of cloned ion channel current in transfected HEK cells: Kv4.2
Assay type: cell-based
Settings: integrated current, -80 mV to +60 mV
Protocol: The relevant cloned ion channels (e.g. cardiac hH1, Kv1.4, Kv1.5, Kv4.2, Kv2.1, HERG etc.) are studied by transient transfection into HEK cells using the mammalian expression vector pCDNA3. Transfections for each channel type are carried out separately to allow individual study of the ion channel of interest. Cells expressing channel protein are detected by cotransfecting cells with the vector pHook-1 (Invitrogen, San Diego, Calif., USA). […] Equal concentrations of individual channel and pHook DNA are incubated with 10× concentration of lipofectAce in Modified Eagle's Medium (MEM, Canadian Life Technologies) and incubated with parent HEK cells plated on 25 mm culture dishes. After 3–4 hours the solution is replaced with a standard culture medium plus 20% fetal bovine serum and 1% antimycotic. Transfected cells are maintained at 37C in an air/5% CO2 incubator in 25 mm Petri dishes plated on glass coverslips for 24–48 hours to allow channel expression to occur. 20 min prior to experiments, cells are treated with beads coated with phOX. After 15 min, excess beads are […] off with cell culture medium and cells which had beads stuck to them are used for electrophysiological tests.
For whole-cell recording the control pipette filling solution contained (in mM): KCl, 130; EGTA, 5; MgCl2, 1; HEPES, 10; Na2ATP, 4; GTP, 0.1; and is adjusted to pH 7.2 with KOH. The control bath solution contained (in mM): NaCl, 135; KCI, 5; sodium acetate, 2.8; MgCl2, 1; HEPES, 10; CaCl2, 1; and is adjusted to pH 7.4 with NaOH. The test ion channel modulating compound is dissolved to 10 mM stock solutions in water and used at concentrations between 0.5 and 100 μM.
Coverslips containing cells are removed from the incubator before experiments and placed in a superfusion chamber (volume 250 μl) containing the control bath solution at 22C to 23C. All recordings are made via the variations of the patch-clamp technique, using an Axopatch 200A amplifier (Axon Instruments, CA). Patch electrodes are pulled from thin-walled borosilicate glass (World Precision Instruments; FL) on a horizontal micropipette puller, fire-polished, and filled with appropriate solutions. Electrodes had resistances of […] when filled with control filling solution. Analog capacity compensation is used in all whole cell measurements. In some experiments, leak subtraction is applied to data. Membrane potentials have not been corrected for any junctional potentials that arose between the pipette and bath solution. Data are filtered at 5 to 10 kHz before digitization and stored on a microcomputer for later analysis using the pClamp6 software (Axon Instruments, Foster City, Calif.). Due to the high level of expression of channel cDNA's in HEK cells, there is no need for signal averaging. The average cell capacitance is quite small, and the absence of ionic current at negative membrane potentials allowed faithful leak subtraction of data.
The concentration-response curves for changes in peak and steady-state current produced by the test compound are computer-fitted to the Hill equation: f=1−1/[1+([…])^n] [1]
where f is the fractional current (f=Idrug/Icontrol) at drug concentration [D]; IC50 is the concentration producing half-maximal inhibition and n is the Hill coefficient.
Compounds of the present invention may be evaluated by this method. […] Block is determined from the decrease in peak hH1 Na^+ current, or in steady-state Kv1.5 and integrated Kv4.2 current in the presence of drug. To record Na^+ current, cells are depolarized from the holding potential of −100 mV to a voltage of −30 mV for 10 ms to fully open and inactivate the channel. To record Kv1.5 and Kv4.2 current, cells are depolarized from the holding potential of −80 mV to a voltage of +60 mV for 200 ms to fully open the channel. Currents are recorded in the steady-state at a range of drug concentrations during stimulation every 4 s. […]

SMILES: COc1ccc(CCCOc2cccn3cc(C)nc23)cc1OC [Compound 3, 8-[3-(3,4-DIMETHOXYPHENYL)PROPOXY]-2-METHYLIMIDAZO[1,2-α]PYRIDINE MONOHYDROCHLORDE]
- IC50: 13 µM
